{"source": "patent US20220175766A1", "about": "“COMPOSITIONS AND METHODS OF TREATMENT” (GB004, Inc., priority 2019, published 2022)", "key": {"[1]": {"assay": "Phase 1a multiple ascending dose study (oral solution): plasma pharmacokinetics", "format": "in vivo, human", "settings": "human, plasma, oral; for concentration at 16 h: Hour 16; for concentration at 16 h / concentration at 24 h / concentration at 0.5 h / concentration at 1 h / concentration at 3 h / concentration at 4 h / concentration at 6 h / concentration at 8 h / concentration at 12 h / concentration at 2 h: read-out: Compound 1 concentration, Conc (SD); for concentration at 24 h: Hour 24; for AUC(0-t): read-out: AUC(0-t), mean; for concentration at 0.5 h: Hour 0.5; for concentration at 1 h: Hour 1; for concentration at 3 h: Hour 3; for concentration at 4 h: Hour 4; for concentration at 6 h: Hour 6; for concentration at 8 h: Hour 8; for concentration at 12 h: Hour 12; for AUC: read-out: AUC(0-τ), mean (SD); for concentration at 2 h: Hour 2; for Tmax: read-out: Tmax, median (range)", "protocol": "Compound 1 was administered as the HCl-salt (prepared analogously to Example 2.1).\nThe secondary objective was to characterize the multiple dose pharmacokinetic (PK) parameters of Compound 1, after ascending doses. Secondary endpoints included determination of PK parameters in plasma and urine, fecal excretion and assessment of colonic biopsy samples.\nBlood samples were collected at the following time points relative to dose administration on Day 1 and Day 7: pre-dose; 0.5, 1, 2, 3, 4, 6, 8, 12, 16 and 24 hours post dose. Analysis and concentration determinations were performed using a liquid chromatography-mass spectrometry and liquid chromatography-tandem mass spectrometry (LC/MS/MS) method."}, "[2]": {"assay": "Phase 1a multiple ascending dose study (oral solution): safety and tolerability", "format": "in vivo, human", "protocol": "The primary objective of the study was to assess the safety and tolerability of ascending doses of Compound 1 after multiple oral doses administration. The safety endpoints included TEAE incidence and severity, clinically significant changes in vital signs, ECG parameters, clinical laboratory tests and physical examination.\nSafety and tolerability were assessed by review of vital signs, laboratory results (serum chemistry, hematology and urinalysis), ECG, physical examination findings, AEs, and PK assessment following the Day 1 and Day 7 doses. […] One event of vomiting led to early trial discontinuation in the 240 mg dose group."}, "[3]": {"settings": "120 mg, Cohort 2, 120 mg once daily, Day 7"}, "[4]": {"settings": "120 mg, Cohort 2, 120 mg, Day 1"}, "[5]": {"settings": "120 mg, Cohort 4, 120 mg once daily, Day 7"}, "[6]": {"settings": "120 mg, Cohort 4, 120 mg, Day 1"}, "[7]": {"settings": "240 mg, Cohort 3, 240 mg once daily, Day 7"}, "[8]": {"settings": "240 mg, Cohort 3, 240 mg, Day 1"}}, "note": "Read-outs that look alike come from different tables or passages of the source."}
{"smiles": "CC(C)(C)OC(=O)N1CCN(Cc2ccn(Cc3ccc(Cl)cc3)c(=O)c2O)CC1", "note": "[Compound 1, tert-butyl 4-((1-(4-chlorobenzyl)-3-hydroxy-2-oxo-1,2-dihydropyridin-4-yl)methyl)piperazine-1-carboxylate]", "values": [{"measurement": "concentration at 16 h", "setting": "[1]; [3]", "result": 1.39, "unit": "ng/mL"}, {"measurement": "concentration at 24 h", "setting": "[1]; [3]", "result": 0, "unit": "ng/mL"}, {"measurement": "AUC(0-t)", "setting": "[1]; [3]", "result": 48.2, "unit": "ng·h/mL"}, {"measurement": "Cmax", "setting": "[1]; 120 mg, Cohort 2, 120 mg once daily, Day 7, read-out: Cmax, mean", "result": 11.4, "unit": "ng/mL"}, {"measurement": "concentration at 0.5 h", "setting": "[1]; [4]", "result": 9.54, "unit": "ng/mL"}, {"measurement": "concentration at 1 h", "setting": "[1]; [4]", "result": 6.08, "unit": "ng/mL"}, {"measurement": "concentration at 3 h", "setting": "[1]; [4]", "result": 1.95, "unit": "ng/mL"}, {"measurement": "concentration at 4 h", "setting": "[1]; [4]", "result": 0, "unit": "ng/mL"}, {"measurement": "concentration at 6 h", "setting": "[1]; [4]", "result": 0, "unit": "ng/mL"}, {"measurement": "concentration at 8 h", "setting": "[1]; [4]", "result": 0, "unit": "ng/mL"}, {"measurement": "concentration at 12 h", "setting": "[1]; [4]", "result": 0, "unit": "ng/mL"}, {"measurement": "concentration at 16 h", "setting": "[1]; [4]", "result": 0, "unit": "ng/mL"}, {"measurement": "concentration at 24 h", "setting": "[1]; [4]", "result": 0, "unit": "ng/mL"}, {"measurement": "AUC", "setting": "[1]; [4]", "result": 27.9, "unit": "ng·h/mL"}, {"measurement": "Cmax", "setting": "[1]; 120 mg, Cohort 2, 120 mg, Day 1, read-out: Cmax, mean (SD)", "result": 9.54, "unit": "ng/mL"}, {"measurement": "concentration at 0.5 h", "setting": "[1]; [5]", "result": 15.6, "unit": "ng/mL"}, {"measurement": "concentration at 1 h", "setting": "[1]; [5]", "result": 9.34, "unit": "ng/mL"}, {"measurement": "concentration at 2 h", "setting": "[1]; [5]", "result": 5.32, "unit": "ng/mL"}, {"measurement": "concentration at 3 h", "setting": "[1]; [5]", "result": 3.69, "unit": "ng/mL"}, {"measurement": "concentration at 4 h", "setting": "[1]; [5]", "result": 2.98, "unit": "ng/mL"}, {"measurement": "concentration at 6 h", "setting": "[1]; [5]", "result": 3.3, "unit": "ng/mL"}, {"measurement": "concentration at 8 h", "setting": "[1]; [5]", "result": 3.03, "unit": "ng/mL"}, {"measurement": "concentration at 12 h", "setting": "[1]; [5]", "result": 2.59, "unit": "ng/mL"}, {"measurement": "concentration at 16 h", "setting": "[1]; [5]", "result": 2.26, "unit": "ng/mL"}, {"measurement": "concentration at 24 h", "setting": "[1]; [5]", "result": 1.92, "unit": "ng/mL"}, {"measurement": "AUC(0-t)", "setting": "[1]; [5]", "result": 75.8, "unit": "ng·h/mL"}, {"measurement": "Cmax", "setting": "[1]; 120 mg, Cohort 4, 120 mg once daily, Day 7, read-out: Cmax, mean", "result": 15.6, "unit": "ng/mL"}, {"measurement": "concentration at 0.5 h", "setting": "[1]; [6]", "result": 11.9, "unit": "ng/mL"}, {"measurement": "concentration at 1 h", "setting": "[1]; [6]", "result": 8.03, "unit": "ng/mL"}, {"measurement": "concentration at 3 h", "setting": "[1]; [6]", "result": 2.68, "unit": "ng/mL"}, {"measurement": "concentration at 4 h", "setting": "[1]; [6]", "result": 1.48, "unit": "ng/mL"}, {"measurement": "concentration at 6 h", "setting": "[1]; [6]", "result": 1.14, "unit": "ng/mL"}, {"measurement": "concentration at 8 h", "setting": "[1]; [6]", "result": 0, "unit": "ng/mL"}, {"measurement": "concentration at 12 h", "setting": "[1]; [6]", "result": 0, "unit": "ng/mL"}, {"measurement": "concentration at 16 h", "setting": "[1]; [6]", "result": 0, "unit": "ng/mL"}, {"measurement": "concentration at 24 h", "setting": "[1]; [6]", "result": 0, "unit": "ng/mL"}, {"measurement": "AUC", "setting": "[1]; [6]", "result": 38.1, "unit": "ng·h/mL"}, {"measurement": "Cmax", "setting": "[1]; 120 mg, Cohort 4, 120 mg, Day 1, read-out: Cmax, mean (SD)", "result": 12, "unit": "ng/mL"}, {"measurement": "concentration at 0.5 h", "setting": "[1]; [7]", "result": 28.5, "unit": "ng/mL"}, {"measurement": "concentration at 1 h", "setting": "[1]; [7]", "result": 20.5, "unit": "ng/mL"}, {"measurement": "concentration at 2 h", "setting": "[1]; [7]", "result": 10.3, "unit": "ng/mL"}, {"measurement": "concentration at 3 h", "setting": "[1]; [7]", "result": 7.61, "unit": "ng/mL"}, {"measurement": "concentration at 4 h", "setting": "[1]; [7]", "result": 6.99, "unit": "ng/mL"}, {"measurement": "concentration at 6 h", "setting": "[1]; [7]", "result": 6.8, "unit": "ng/mL"}, {"measurement": "concentration at 8 h", "setting": "[1]; [7]", "result": 6.44, "unit": "ng/mL"}, {"measurement": "concentration at 12 h", "setting": "[1]; [7]", "result": 4.66, "unit": "ng/mL"}, {"measurement": "concentration at 16 h", "setting": "[1]; [7]", "result": 3.27, "unit": "ng/mL"}, {"measurement": "concentration at 24 h", "setting": "[1]; [7]", "result": 2.53, "unit": "ng/mL"}, {"measurement": "AUC(0-t)", "setting": "[1]; [7]", "result": 139, "unit": "ng·h/mL"}, {"measurement": "Cmax", "setting": "[1]; 240 mg, Cohort 3, 240 mg once daily, Day 7, read-out: Cmax, mean", "result": 28.8, "unit": "ng/mL"}, {"measurement": "concentration at 0.5 h", "setting": "[1]; [8]", "result": 25.7, "unit": "ng/mL"}, {"measurement": "concentration at 1 h", "setting": "[1]; [8]", "result": 15, "unit": "ng/mL"}, {"measurement": "concentration at 3 h", "setting": "[1]; [8]", "result": 5.97, "unit": "ng/mL"}, {"measurement": "concentration at 4 h", "setting": "[1]; [8]", "result": 4.12, "unit": "ng/mL"}, {"measurement": "concentration at 6 h", "setting": "[1]; [8]", "result": 3.39, "unit": "ng/mL"}, {"measurement": "concentration at 8 h", "setting": "[1]; [8]", "result": 3.02, "unit": "ng/mL"}, {"measurement": "concentration at 12 h", "setting": "[1]; [8]", "result": 3.13, "unit": "ng/mL"}, {"measurement": "concentration at 16 h", "setting": "[1]; [8]", "result": 2.25, "unit": "ng/mL"}, {"measurement": "concentration at 24 h", "setting": "[1]; [8]", "result": 1.35, "unit": "ng/mL"}, {"measurement": "AUC", "setting": "[1]; [8]", "result": 91.5, "unit": "ng·h/mL"}, {"measurement": "Cmax", "setting": "[1]; 240 mg, Cohort 3, 240 mg, Day 1, read-out: Cmax, mean (SD)", "result": 25.7, "unit": "ng/mL"}, {"measurement": "Tmax", "setting": "[1]; Cohort 2, 120 mg, Day 1", "result": 30, "unit": "min"}, {"measurement": "Tmax", "setting": "[1]; Cohort 3, 240 mg, Day 1", "result": 30, "unit": "min"}, {"measurement": "Tmax", "setting": "[1]; Cohort 5, 60 mg, Day 1", "result": 30, "unit": "min"}, {"measurement": "Tolerability", "setting": "[2]; 240 mg dose once daily", "result": "less well tolerated"}, {"measurement": "Tolerability", "setting": "[2]; doses up to 120 mg once daily for 8 days", "result": "generally well tolerated"}]}
